Consider 13 compounds from PubChem BioAssay (NCI).

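Results reflect a 48-hour exposure of cells in 96-well plates to compound at five concentrations. The concentration for 50% growth inhibition is given as GI50. At the TGI there is no net growth.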

Test systems include HCC-2998 colon; SNB-75 CNS; MCF7 breast; RXF 393 renal; UACC-257 melanoma; A549 NSCLC; MDA-MB-435; NCI-H522 lung; KM12 colon; U251 CNS.
Holding throughout (assay): growth of human tumour cells (NCI), 48 h

Turning to `O=C/C=C/c1ccco1`, the TGI in the assay on HCC-2998 colon, with SNB-75 CNS, in the assay with MCF7 breast, in the assay on RXF 393 renal, in the assay on UACC-257 melanoma and with A549 NSCLC was greater than 100 µM throughout. Besides, the TGI with MDA-MB-435, in the assay with NCI-H522 lung, in the assay on KM12 colon and in the assay with U251 CNS was greater than 100 µM throughout.
For `COc1cc(C2C(C(=O)O)=C(COC(C)=O)Oc3cc4c(cc32)OCO4)cc(OC)c1OC` (stereo not given), the TGI with SNB-75 CNS, with RXF 393 renal, in the assay on UACC-257 melanoma, with A549 NSCLC and with U251 CNS was greater than 100 µM throughout.
For the compound `O=C1/C(=C/c2ccc(Cl)cc2)N=C(c2ccccc2)N1CCc1cccs1`, the GI50 with HCC-2998 colon is 31.8 µM; with SNB-75 CNS, 50.9 µM; in the assay with MCF7 breast, 18.4 µM; with RXF 393 renal it was 23.3 µM; in the assay with UACC-257 melanoma, 36 µM; with A549 NSCLC it was 31.4 µM. The GI50 in the assay on MDA-MB-435 was 28 µM; with NCI-H522 lung, 15.3 µM; in the assay with KM12 colon, 22 µM; in the assay on U251 CNS it was 22.4 µM. The TGI in the assay on HCC-2998 colon, in the assay on SNB-75 CNS, in the assay with MCF7 breast, in the assay with RXF 393 renal, in the assay on UACC-257 melanoma and with A549 NSCLC was greater than 100 µM throughout. For the same compound, the TGI with MDA-MB-435 is greater than 100 µM; in the assay on NCI-H522 lung it was 74 µM; in the assay with KM12 colon, greater than 100 µM; with U251 CNS, greater than 100 µM.
With `N=C(N)SCc1ccc(Cl)cc1Cl` (tested in a mixture with another compound), the TGI is 21.5 µM in the assay with HCC-2998 colon; 30.9 µM in the assay with SNB-75 CNS; 28.5 µM in the assay with MCF7 breast; 27.9 µM in the assay on RXF 393 renal; 20.7 µM in the assay with UACC-257 melanoma; greater than 69.6 µM in the assay on A549 NSCLC. Further, the TGI came out at 18.3 µM in the assay with MDA-MB-435, 30.8 µM with NCI-H522 lung, 28.2 µM in the assay with KM12 colon and 28.5 µM in the assay on U251 CNS.
As for `CNC(=O)N(C)COC`, the TGI with HCC-2998 colon, in the assay with SNB-75 CNS, with UACC-257 melanoma, in the assay with A549 NSCLC, in the assay on NCI-H522 lung and with KM12 colon was greater than 100 µM throughout. In the assay on U251 CNS, the TGI was greater than 100 µM.
Regarding `O=C(O)c1cn2c3c(cc(N4CCN(CCO)CC4)cc3c1=O)SCC2`, the TGI is 93.3 µM in the assay with HCC-2998 colon; greater than 66.5 µM in the assay with SNB-75 CNS; greater than 100 µM with MCF7 breast; greater than 100 µM with RXF 393 renal; greater than 100 µM in the assay with UACC-257 melanoma; greater than 100 µM in the assay with A549 NSCLC. The TGI in the assay with NCI-H522 lung is 94.2 µM; in the assay with KM12 colon, greater than 100 µM; with U251 CNS, greater than 100 µM.
`COc1cc(/C=C/C(=O)c2c(C)nc3ccccc3c2C)ccc1OCCCOc1cc2c(cc1OC)C(=O)N1CCC[C@H]1C=N2`: the GI50 in the assay with HCC-2998 colon was 0.0183 µM; in the assay on SNB-75 CNS it was 0.0226 µM; with UACC-257 melanoma, 0.0269 µM; in the assay with A549 NSCLC, 0.0268 µM; with MDA-MB-435, 0.0197 µM; with NCI-H522 lung, 0.0337 µM. The TGI with HCC-2998 colon turned out to be 0.0386 µM; in the assay with SNB-75 CNS it was 0.114 µM; in the assay with UACC-257 melanoma, 0.0838 µM; in the assay on A549 NSCLC, 0.0623 µM; with MDA-MB-435, 0.04 µM; in the assay on NCI-H522 lung it was 22.9 µM.
Turning to `CN(C)c1ccc(C(Cc2ccc3ccccc3n2)Cc2ccc3ccccc3n2)cc1`, the GI50 in the assay with SNB-75 CNS was 3.24 µM; in the assay on RXF 393 renal, 3.48 µM; in the assay with NCI-H522 lung, 3.4 µM. Also, the figures for the TGI in the assay on SNB-75 CNS, in the assay with RXF 393 renal and with NCI-H522 lung were greater than 100 µM, 9.11 µM and greater than 100 µM, respectively.
Regarding `CCCCCCCCCCCCCC[n+]1ccc2c(C)c3c(c(C)c2c1)c1cc(O)ccc1n3CC`, the GI50 with HCC-2998 colon is 0.435 µM; in the assay with SNB-75 CNS, 0.213 µM; with MDA-MB-435, 0.314 µM; in the assay with NCI-H522 lung, 0.42 µM. For the same compound, the TGI in the assay on HCC-2998 colon turned out to be 1.81 µM; in the assay on SNB-75 CNS, 1.05 µM; with MDA-MB-435, 1.03 µM; in the assay on NCI-H522 lung, 2 µM.
Take `CO/N=C(\C)COc1ccc2c(=O)c(-c3ccccc3)coc2c1`: the GI50 with SNB-75 CNS was 20 µM; in the assay with MCF7 breast, 39 µM; in the assay on RXF 393 renal it was 27.1 µM; in the assay with UACC-257 melanoma it was 25.6 µM; in the assay on A549 NSCLC, 27.1 µM; in the assay on MDA-MB-435, greater than 100 µM. In addition, the GI50 in the assay on NCI-H522 lung was 22.2 µM; with KM12 colon, greater than 100 µM; in the assay with U251 CNS it was 32.2 µM. In addition, the TGI in the assay with SNB-75 CNS is 81.6 µM; in the assay on MCF7 breast, greater than 100 µM; with RXF 393 renal, 57.8 µM; in the assay on UACC-257 melanoma, 97.3 µM; with A549 NSCLC it was greater than 100 µM; in the assay with MDA-MB-435, greater than 100 µM. Further, the values for the TGI with NCI-H522 lung, with KM12 colon and with U251 CNS were 79 µM, greater than 100 µM and greater than 100 µM, respectively.
With `CC(C)C1=CCC2C(=C1)CCC1C(C)(C(=O)O)CCCC21C` (stereo not given) (tested in a mixture with another compound), the TGI with HCC-2998 colon, in the assay with SNB-75 CNS, in the assay on MCF7 breast, in the assay on RXF 393 renal, in the assay on UACC-257 melanoma and in the assay with A549 NSCLC was greater than 100 µM in each case. Moreover, the TGI with MDA-MB-435, in the assay on NCI-H522 lung, in the assay with KM12 colon and with U251 CNS was greater than 100 µM in each case.
As for `CCc1ccc2nc(-c3ccc(O)cc3)sc2c1`, the TGI in the assay with MCF7 breast turned out to be 46.4 µM; in the assay on UACC-257 melanoma, 35.7 µM; with A549 NSCLC, 44.9 µM; in the assay with MDA-MB-435, 39.5 µM; in the assay on NCI-H522 lung, 18.3 µM; in the assay with KM12 colon, 32.7 µM. Besides, the TGI in the assay on U251 CNS came out at 33.6 µM.
With `N#Cc1c(N)sc2c1-c1ccccc1OC2`, the TGI in the assay with HCC-2998 colon is greater than 100 µM; in the assay with MCF7 breast it was greater than 100 µM; in the assay with RXF 393 renal, 41.3 µM; with UACC-257 melanoma it was greater than 100 µM; with A549 NSCLC, greater than 100 µM; in the assay on MDA-MB-435, greater than 100 µM. The TGI in the assay with KM12 colon and in the assay with U251 CNS was greater than 100 µM each time.
